# Laboratory results published in US6638957B1, “Use of compounds with a nitrogen-oxygen heterocycle” (Jomaa Pharmaka GmbH, priority 1999, dated 2003).
# Like-named read-outs stand apart in the source and are kept apart here.
# What was measured:
# [1] = target: T1, DOXP reductoisomerase of Escherichia coli (UniProt P56139); assay: inhibition of recombinant DOXP reductoisomerase (NADPH oxidation); type: biochemical; details: 1 mM DOXP, 0,3 mM NADPH, pH 7,5; read-out: IC50(nM) of DOXP reductoisomerase from Helicobacter pilori
# T1 sequence (P56139 1-368): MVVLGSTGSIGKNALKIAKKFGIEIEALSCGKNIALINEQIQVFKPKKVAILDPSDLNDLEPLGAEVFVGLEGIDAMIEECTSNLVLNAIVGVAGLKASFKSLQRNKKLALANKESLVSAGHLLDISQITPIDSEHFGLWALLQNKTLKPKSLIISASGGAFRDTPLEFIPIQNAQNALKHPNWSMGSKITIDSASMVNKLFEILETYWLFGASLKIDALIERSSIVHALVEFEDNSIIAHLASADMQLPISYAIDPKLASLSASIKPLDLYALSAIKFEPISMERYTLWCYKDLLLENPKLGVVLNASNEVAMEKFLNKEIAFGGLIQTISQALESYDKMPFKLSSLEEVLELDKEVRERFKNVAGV
# Plasmodium falciparum = assay: antimalaria activity on in vitro cultures, [3H]-hypoxanthine incorporation; type: cell-based; details: 72 h, inhibition of [3H]-hypoxanthine incorporation, 48 + 24 hours, read-out: IC50(nM) of malaria culture (Plasmodium falciparum)
# Procedure: The antimalaria activity of the compounds listed on page 9 was determined on in vitro cultures of the malaria pathogen Plasmodium falciparum. The depressions of a 96-well microtitre plate were charged with in each case 200 μl of an asynchroneous Plasmodium falciparum culture at a parasitaemia of 0,4% and haematokrit of 2%. A serial dilution series of the compounds in triple steps between concentrations of 100 to 0,14 μmol 1^−1 was then prepared. The plates were incubated at 37° C., 3% CO2 and 5% O2 over a period of 48 hours. 30 μl medium supplemented with 27 μCi ml^−1 [^3H]-hypoxanthine were then added to each well. After incubation for 24 hours the parasites were harvested by filtration on a glass fibre filter and the radioactivity which had been incorporated was measured. The inhibition of the growth of parasites was measured as the percentage inhibition of the incorporation of tritium. Inhibition of the growth of the parasites has been determined as percentage inhibition of incorporation of tritium based on a comparison without the substance. The half-maximum inhibitory concentration (IC50) of the substance was determined by extrapolation of the values.
# Pseudomonas aeruginosa = assay: antibacterial activity, minimum inhibition concentration in liquid culture; type: cell-based; details: read-out: MIC(nM) of bacteria culture (Pseudomonas aeruginosa)
# Procedure: A dilution series comprising the concentrations 500, 100, 50, 10 and 0 μmol 1^−1 of the individual compounds in LB medium is introduced into 5 culture microtubes in a volume of 0,5 ml. The tubes were inoculated with 10 μl of an overnight culture of E. coli K12 and shaken overnight at 37° C. The growth of the bacteria was assessed on the basis of the turbidity of the medium. The minimum concentration causing inhibition of bacterial growth was determined (minimum inhibition concentration MIC)
# The antibacterial activity of P. aeruginosa was determined in the same manner.
# Echinochloa = assay: herbicidal activity, Hydro Vorauflauf; type: in vivo; details: 4000 Gramm/Hektar
# Procedure: (§1) The determination of herbicidal activity is performed according to standard procedure. Again the compounds listed on page 9 are tested.
# Lepidium = assay: herbicidal activity, Hydro Vorauflauf; type: in vivo; details: 4000 Gramm/Hektar
# Procedure: as §1
# Reis = assay: herbicidal activity, Hydro Vorauflauf; type: in vivo; details: 4000 Gramm/Hektar
# Procedure: as §1
# Solanum = assay: herbicidal activity, Hydro Vorauflauf; type: in vivo; details: 4000 Gramm/Hektar
# Procedure: as §1
# Abutilon theophrasti [2] = assay: herbicidal activity, Erde Vorauflauf; type: in vivo; details: 2000 Gramm/Hektar
# Procedure: as §1
# Alopecurus myosuroides [3] = assay: herbicidal activity, Erde Vorauflauf; type: in vivo; details: 2000 Gramm/Hektar
# Procedure: as §1
# Amaranthus retroflexus [4] = assay: herbicidal activity, Erde Vorauflauf; type: in vivo; details: 2000 Gramm/Hektar
# Procedure: as §1
# Avena fatua [5] = assay: herbicidal activity, Erde Vorauflauf; type: in vivo; details: 2000 Gramm/Hektar
# Procedure: as §1
# Beta vulgaris [6] = assay: herbicidal activity, Erde Vorauflauf; type: in vivo; details: 2000 Gramm/Hektar
# Procedure: as §1
# Cyperus esculentus [7] = assay: herbicidal activity, Erde Vorauflauf; type: in vivo; details: 2000 Gramm/Hektar
# Procedure: as §1
# Galium aperine [8] = assay: herbicidal activity, Erde Vorauflauf; type: in vivo; details: 2000 Gramm/Hektar
# Procedure: as §1
# Setaria viridis [9] = assay: herbicidal activity, Erde Vorauflauf; type: in vivo; details: 2000 Gramm/Hektar
# Procedure: as §1
# Sinapis arvensis [10] = assay: herbicidal activity, Erde Vorauflauf; type: in vivo; details: Mutarda arvensis; 2000 Gramm/Hektar
# Procedure: as §1
# Xanthium strumarium [11] = assay: herbicidal activity, Erde Vorauflauf; type: in vivo; details: 2000 Gramm/Hektar
# Procedure: as §1
# Zea mays [12] = assay: herbicidal activity, Erde Vorauflauf; type: in vivo; details: 2000 Gramm/Hektar
# Procedure: as §1
# Abutilon theophrasti [13] = assay: herbicidal activity, Erde Nachauflauf; type: in vivo; details: 2000 Gramm/Hektar
# Procedure: as §1
# Alopecurus myosuroides [14] = assay: herbicidal activity, Erde Nachauflauf; type: in vivo; details: 2000 Gramm/Hektar
# Procedure: as §1
# Amaranthus retroflexus [15] = assay: herbicidal activity, Erde Nachauflauf; type: in vivo; details: 2000 Gramm/Hektar
# Procedure: as §1
# Avena fatua [16] = assay: herbicidal activity, Erde Nachauflauf; type: in vivo; details: 2000 Gramm/Hektar
# Procedure: as §1
# Beta vulgaris [17] = assay: herbicidal activity, Erde Nachauflauf; type: in vivo; details: 2000 Gramm/Hektar
# Procedure: as §1
# Cyperus esculentus [18] = assay: herbicidal activity, Erde Nachauflauf; type: in vivo; details: 2000 Gramm/Hektar
# Procedure: as §1
# Galium aperine [19] = assay: herbicidal activity, Erde Nachauflauf; type: in vivo; details: 2000 Gramm/Hektar
# Procedure: as §1
# Setaria viridis [20] = assay: herbicidal activity, Erde Nachauflauf; type: in vivo; details: 2000 Gramm/Hektar
# Procedure: as §1
# Sinapis arvensis [21] = assay: herbicidal activity, Erde Nachauflauf; type: in vivo; details: Mutarda arvensis; 2000 Gramm/Hektar
# Procedure: as §1
# Xanthium strumarium [22] = assay: herbicidal activity, Erde Nachauflauf; type: in vivo; details: 2000 Gramm/Hektar
# Procedure: as §1
# Zea mays [23] = assay: herbicidal activity, Erde Nachauflauf; type: in vivo; details: 2000 Gramm/Hektar
# Procedure: as §1
SMILES,IC50 [1] [nM],IC50 (Plasmodium falciparum) [nM],pest or weed control at 4000 g/ha (Echinochloa) [%],pest or weed control at 4000 g/ha (Lepidium) [%],pest or weed control at 4000 g/ha (Reis) [%],pest or weed control at 4000 g/ha (Solanum) [%],pest or weed control at 2000 g/ha (Abutilon theophrasti [2]) [%],pest or weed control at 2000 g/ha (Alopecurus myosuroides [3]) [%],pest or weed control at 2000 g/ha (Amaranthus retroflexus [4]) [%],pest or weed control at 2000 g/ha (Avena fatua [5]) [%],plant injury at 2000 g/ha (Beta vulgaris [6]) [%],pest or weed control at 2000 g/ha (Cyperus esculentus [7]) [%],pest or weed control at 2000 g/ha (Galium aperine [8]) [%],pest or weed control at 2000 g/ha (Setaria viridis [9]) [%],pest or weed control at 2000 g/ha (Sinapis arvensis [10]) [%],pest or weed control at 2000 g/ha (Xanthium strumarium [11]) [%],plant injury at 2000 g/ha (Zea mays [12]) [%],pest or weed control at 2000 g/ha (Abutilon theophrasti [13]) [%],pest or weed control at 2000 g/ha (Alopecurus myosuroides [14]) [%],pest or weed control at 2000 g/ha (Amaranthus retroflexus [15]) [%],other results
CP(=O)(O)CCCN1OCCCC1=O [Compound 4],78,9200,70,30,30,30,0,0,0,60,60,0,0,0,70,0,30,50,70,40,MIC (Pseudomonas aeruginosa): 7000 nM; pest or weed control at 2000 g/ha (Avena fatua [16]): 40%; plant injury at 2000 g/ha (Beta vulgaris [17]): 50%; pest or weed control at 2000 g/ha (Cyperus esculentus [18]): 0%; pest or weed control at 2000 g/ha (Galium aperine [19]): 70%; pest or weed control at 2000 g/ha (Setaria viridis [20]): 90%; pest or weed control at 2000 g/ha (Sinapis arvensis [21]): 60%; pest or weed control at 2000 g/ha (Xanthium strumarium [22]): 90%; plant injury at 2000 g/ha (Zea mays [23]): 70%
CC1CON(CCCP(=O)(O)O)C1=O (stereo not drawn) [Compound 5],100,1200,60,40,40,0,0,60,0,0,30,0,0,0,50,0,0,40,80,30,MIC (Pseudomonas aeruginosa): 2200 nM; pest or weed control at 2000 g/ha (Avena fatua [16]): 40%; plant injury at 2000 g/ha (Beta vulgaris [17]): 40%; pest or weed control at 2000 g/ha (Cyperus esculentus [18]): 0%; pest or weed control at 2000 g/ha (Galium aperine [19]): 70%; pest or weed control at 2000 g/ha (Setaria viridis [20]): 95%; pest or weed control at 2000 g/ha (Sinapis arvensis [21]): 90%; pest or weed control at 2000 g/ha (Xanthium strumarium [22]): 60%; plant injury at 2000 g/ha (Zea mays [23]): 80%
CN(C)CCCN1OCCCC1=O [Compound 6],130,1600,50,30,40,0,0,70,0,0,60,0,0,0,30,0,0,60,40,70,"MIC (Pseudomonas aeruginosa; LB medium, overnight at 37° C., turbidity): 2500 nM; pest or weed control at 2000 g/ha (Avena fatua [16]): 60%; plant injury at 2000 g/ha (Beta vulgaris [17]): 40%; pest or weed control at 2000 g/ha (Cyperus esculentus [18]): 0%; pest or weed control at 2000 g/ha (Galium aperine [19]): 80%; pest or weed control at 2000 g/ha (Setaria viridis [20]): 70%; pest or weed control at 2000 g/ha (Sinapis arvensis [21]): 60%; pest or weed control at 2000 g/ha (Xanthium strumarium [22]): 60%; plant injury at 2000 g/ha (Zea mays [23]): 70%"
